Assay results published in the NIST ThermoML archive (doi:10.1016/j.fluid.2007.06.007).

Test: excess molar enthalpy (molar enthalpy of mixing); xn = mol fraction of the nth substance listed
Conditions: 101 kPa, Liquid, Calvet calorimetry

CCCCn1cc[n+](C)c1.F[P-](F)(F)(F)(F)F [1-butyl-3-methylimidazolium hexafluorophosphate] + CCCO
Conditions | excess molar enthalpy [kcal/mol]
288.15 K, x2 = 0.000953 | 0.00219
288.15 K, x2 = 0.001891 | 0.00413
288.15 K, x2 = 0.002836 | 0.00617
288.15 K, x2 = 0.003785 | 0.00824
288.15 K, x2 = 0.004734 | 0.0102
288.15 K, x2 = 0.005679 | 0.0123
288.15 K, x2 = 0.006625 | 0.0142
288.15 K, x2 = 0.007571 | 0.0162
298.15 K, x2 = 0.000901 | 0.0021
298.15 K, x2 = 0.001808 | 0.00414
298.15 K, x2 = 0.002711 | 0.00615
298.15 K, x2 = 0.003619 | 0.00808
298.15 K, x2 = 0.004527 | 0.00997
298.15 K, x2 = 0.005431 | 0.0118
298.15 K, x2 = 0.006336 | 0.0136
298.15 K, x2 = 0.007241 | 0.0155
308.15 K, x2 = 0.000957 | 0.00225
308.15 K, x2 = 0.001911 | 0.00429
308.15 K, x2 = 0.002864 | 0.00631
308.15 K, x2 = 0.003815 | 0.00832
308.15 K, x2 = 0.004765 | 0.0103
308.15 K, x2 = 0.005712 | 0.0123
308.15 K, x2 = 0.006658 | 0.0142
308.15 K, x2 = 0.007602 | 0.0162
318.15 K, x2 = 0.001129 | 0.00278
318.15 K, x2 = 0.002265 | 0.00556
318.15 K, x2 = 0.003396 | 0.00829
318.15 K, x2 = 0.004532 | 0.0109
318.15 K, x2 = 0.005668 | 0.0136
318.15 K, x2 = 0.006798 | 0.0163
318.15 K, x2 = 0.007929 | 0.019
318.15 K, x2 = 0.009059 | 0.0215

CCCCn1cc[n+](C)c1.F[P-](F)(F)(F)(F)F [1-butyl-3-methylimidazolium hexafluorophosphate] + CCCCO
Conditions | excess molar enthalpy [kcal/mol]
288.15 K, x2 = 0.000787 | 0.00199
288.15 K, x2 = 0.001572 | 0.00391
288.15 K, x2 = 0.002356 | 0.00586
288.15 K, x2 = 0.003139 | 0.00774
288.15 K, x2 = 0.003921 | 0.00965
288.15 K, x2 = 0.004701 | 0.0115
288.15 K, x2 = 0.00548 | 0.0134
288.15 K, x2 = 0.006258 | 0.0153
298.15 K, x2 = 0.000761 | 0.00205
298.15 K, x2 = 0.00152 | 0.00402
298.15 K, x2 = 0.002279 | 0.00604
298.15 K, x2 = 0.003036 | 0.00798
298.15 K, x2 = 0.003792 | 0.00989
298.15 K, x2 = 0.004547 | 0.0117
298.15 K, x2 = 0.005301 | 0.0136
298.15 K, x2 = 0.006053 | 0.0154
308.15 K, x2 = 0.000768 | 0.00202
308.15 K, x2 = 0.001541 | 0.00387
308.15 K, x2 = 0.002312 | 0.00562
308.15 K, x2 = 0.003086 | 0.00739
308.15 K, x2 = 0.003861 | 0.0092
308.15 K, x2 = 0.004632 | 0.011
308.15 K, x2 = 0.005405 | 0.0129
308.15 K, x2 = 0.006177 | 0.0147
318.15 K, x2 = 0.000821 | 0.00228
318.15 K, x2 = 0.001647 | 0.00451
318.15 K, x2 = 0.00247 | 0.00669
318.15 K, x2 = 0.003297 | 0.00863
318.15 K, x2 = 0.004125 | 0.0107
318.15 K, x2 = 0.004949 | 0.0128
318.15 K, x2 = 0.005774 | 0.0148
318.15 K, x2 = 0.006599 | 0.0167
328.15 K, x2 = 0.000874 | 0.00273
328.15 K, x2 = 0.001747 | 0.00529
328.15 K, x2 = 0.002618 | 0.00766
328.15 K, x2 = 0.003488 | 0.0101
328.15 K, x2 = 0.004357 | 0.0126
328.15 K, x2 = 0.005223 | 0.015
328.15 K, x2 = 0.006089 | 0.0174
328.15 K, x2 = 0.006952 | 0.0198

CCCCn1cc[n+](C)c1.F[P-](F)(F)(F)(F)F [1-butyl-3-methylimidazolium hexafluorophosphate] + CC(C)O
Conditions | excess molar enthalpy [kcal/mol]
288.15 K, x2 = 0.000943 | 0.00213
288.15 K, x2 = 0.001871 | 0.00426
288.15 K, x2 = 0.002806 | 0.00637
288.15 K, x2 = 0.003745 | 0.00844
288.15 K, x2 = 0.004685 | 0.0106
288.15 K, x2 = 0.00562 | 0.0126
288.15 K, x2 = 0.006556 | 0.0146
288.15 K, x2 = 0.007492 | 0.0167
298.15 K, x2 = 0.000909 | 0.00209
298.15 K, x2 = 0.001826 | 0.00417
298.15 K, x2 = 0.002738 | 0.0062
298.15 K, x2 = 0.003654 | 0.00821
298.15 K, x2 = 0.004571 | 0.0102
298.15 K, x2 = 0.005484 | 0.0123
298.15 K, x2 = 0.006398 | 0.0143
298.15 K, x2 = 0.007311 | 0.0163
308.15 K, x2 = 0.000919 | 0.00219
308.15 K, x2 = 0.001837 | 0.00421
308.15 K, x2 = 0.002753 | 0.00609
308.15 K, x2 = 0.003667 | 0.00793
308.15 K, x2 = 0.004579 | 0.00975
308.15 K, x2 = 0.00549 | 0.0115
308.15 K, x2 = 0.006399 | 0.0132
308.15 K, x2 = 0.007307 | 0.0149
318.15 K, x2 = 0.000994 | 0.00241
318.15 K, x2 = 0.00201 | 0.00473
318.15 K, x2 = 0.003012 | 0.00688
318.15 K, x2 = 0.004011 | 0.00907
318.15 K, x2 = 0.005009 | 0.0111
318.15 K, x2 = 0.006005 | 0.0133
318.15 K, x2 = 0.006999 | 0.0154
318.15 K, x2 = 0.007991 | 0.0172
